PubChem BioAssay AID1645867 (Buhrlage Lab, Dana-Farber Cancer Institute and Novartis …, 2021)
Activity calls are given as the source filed them. No rule for the calls is given here.

The compounds below were run against Ubiquitin carboxyl-terminal hydrolase isozyme L1 (Homo sapiens) (UniProt P09936) (assay: UCH-L1 deubiquitylase inhibitors, biochemical concentration-response, hit retest (AID 1645867)). Details: recombinant UCHL1 deubiquitinase activity assay.
Ubiquitin carboxyl-terminal hydrolase isozyme L1 (Homo sapiens), sequence (P09936 whole entry, looked up): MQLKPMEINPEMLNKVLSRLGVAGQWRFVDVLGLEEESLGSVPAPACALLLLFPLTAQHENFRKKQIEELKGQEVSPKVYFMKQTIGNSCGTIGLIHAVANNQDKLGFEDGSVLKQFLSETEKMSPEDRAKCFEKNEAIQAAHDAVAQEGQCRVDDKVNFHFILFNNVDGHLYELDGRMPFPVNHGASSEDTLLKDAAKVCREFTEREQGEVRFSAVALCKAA
In the case of `C=C(CCC(C)(C)/C=C/CC/C(C)=C/COC(COP(=O)(O)O[C@@H]1OC(C(N)=O)[C@@](C)(O)[C@H](OC(N)=O)C1O[C@@H]1OC(CO[C@@H]2OC(CO)[C@H](O)[C@H](O)C2O)[C@H](O[C@@H]2OC(CO)[C@H](O[C@@H]3OC(C(=O)NC4=C(O)CCC4=O)[C@H](O)[C@H](O)C3O)[C@H](O)C2NC(C)=O)C(O)[C@@H]1NC(C)=O)C(=O)O)CC1C(=C)CCCC1(C)C` (some centres undefined), the IC50 is reported as > 25 µM (inactive).
In the case of `O=C1NC2(CCCc3ccccc32)C(=O)N1Cc1csc(-c2ccccc2)n1` (centres undefined), the IC50 is reported as > 25 µM (inactive).
For `O=C(Nc1c(C(=O)N2CCCCCC2)oc2ccccc12)C1CCCCC1`, the IC50 was > 25 µM (inactive).
For `Cc1ccc(NC(=O)Cc2nnc3cc(-c4nc(C)no4)ccn23)cc1`, the IC50 was > 25 µM (inactive).
For `CC(CCc1ccccc1)NCc1c(C(=O)O)n(Cc2ccccc2)c2ccccc12` (centres undefined), the IC50 was > 25 µM (inactive).
With `COc1ccc(OC)c(-c2cn3ccn(-c4ccc(F)c(Cl)c4)c(=O)c3n2)c1` the IC50 was > 25 µM (inactive).
`CC1OC2CC(O)C1(O)C1=C2C(O)=C(C(N)=O)C(=N)C1=O` (centres undefined) was tested, and the IC50 was 11.6 µM.
In the case of `CCOc1ccccc1NC(=O)Cn1c(=O)n(CCCC(=O)NCc2ccc(C)cc2)c(=O)c2sccc21`, the IC50 is reported as > 25 µM (inactive).
For `CC(C)=CCOC(C)(C)[C@H]1OC2CC[C@@]3(C)C(CCC4Cc5c([nH]c6ccccc56)[C@@]43C)C23OC3[C@@H]1O` (some centres undefined), the IC50 was > 25 µM (inactive).
`COc1cc(NC(=O)c2ccc3c(c2)OCO3)ccc1-c1cc2ccccc2oc1=O` was tested, and the IC50 was > 25 µM (inactive).
For `Cc1nc(-c2ccc(C(=O)Nc3ccc(F)cc3)cc2)cs1`, the IC50 was > 25 µM (inactive).
`COc1cn(-c2ccc(F)cc2)nc1C(=O)Nc1ccc(Cl)cc1Cl` was tested, and the IC50 was 23.2 µM.
In the case of `CCOc1ccc(C2/C(=C(\O)c3ccccc3)C(=O)C(=O)N2c2nc3ccc(F)cc3s2)cc1` (centres undefined), the IC50 is reported as > 25 µM (inactive).
`CC(C)CC1NC(=O)C2CCCN2C1=O` (centres undefined) was tested, and the IC50 was 23.9 µM.
For `O=C(Nc1ccccc1-c1nc2ccccc2[nH]1)c1sc2ccccc2c1Cl`, the IC50 was > 25 µM (inactive).
In the case of `Fc1ccc(NCc2nc3ccccc3n2Cc2ccccc2)cc1`, the IC50 is reported as > 25 µM (inactive).
With `O=c1[nH]cccc1NS(=O)(=O)c1ccc(F)cc1` the IC50 was > 25 µM (inactive).
In the case of `Cc1ccc(NC(=O)C2C3C=CC4(O3)C2C(=O)N(C2CCCCC2)C4C(=O)NC2CCCCC2)cc1C` (centres undefined), the IC50 is reported as > 25 µM (inactive).
With `CCCCCC(O)c1c(O)cc2c(c1O)C(=O)c1c(O)cc(O)cc1C2=O` (centres undefined) the IC50 was > 25 µM (inactive).
`Brc1ccc(Sc2cnns2)cc1` was tested, and the IC50 was > 25 µM (inactive).
In the case of `Cc1ncc(CO)c2c1Oc1nc(-c3cccc(Cl)c3)nc(SCC(=O)N3CCCCC3)c1C2`, the IC50 is reported as > 25 µM (inactive).
With `CC[C@@H](C(=O)[C@@H](C)[C@@H](O)[C@H](C)CCc1ccc(C)c(O)c1C(=O)O)[C@@H]1O[C@](CC)([C@H]2CC[C@](O)(CC)[C@H](C)O2)C[C@@H]1C` the IC50 was > 25 µM (inactive).
With `O=C(Nc1c(C(=O)N2CCCCCC2)oc2ccccc12)C1CCCC1` the IC50 was > 25 µM (inactive).
For `O=C(c1ccc(Cl)cc1)N(c1ccccn1)C1CCCCC1`, the IC50 was > 25 µM (inactive).
In the case of `COc1ccc(-c2cc3nc([C@H](C)NC(=O)Cc4cc(F)ccc4F)nn3cn2)cc1`, the IC50 is reported as > 25 µM (inactive).
`COc1ccc(-c2cnn(-c3ccc(NC(=O)Nc4cccc(C(F)(F)F)c4)cc3)c2)cc1` was tested, and the IC50 was > 25 µM (inactive).
`O=C(/C=C/c1ccc(Cl)cc1)N(Cc1ccccc1)C1CCS(=O)(=O)C1` (centres undefined) was tested, and the IC50 was > 25 µM (inactive).
With `Cc1ccc2[nH]c(=O)c(-c3nc4ccc(C)cn4c3NCc3ccc(F)cc3)cc2c1` the IC50 was > 25 µM (inactive).
`Cc1ccc(NC(=O)Cn2cc(C(=O)c3ccccc3)c(=O)c3cc(C)ccc32)cc1` was tested, and the IC50 was > 25 µM (inactive).
With `CCC(C(=O)C(C)C(O)C(C)CCc1ccc(C)c(O)c1C(=O)O)C1OC(CC)(C2CCC(O)(CC)C(C)O2)CC1C` (centres undefined) the IC50 was > 25 µM (inactive).
In the case of `Cc1ccc2cc(-c3noc(CCC(=O)NC4CCCC4)n3)c(=O)[nH]c2c1`, the IC50 is reported as > 25 µM (inactive).
`Cc1ccccc1NC(=O)Cc1csc2nc(-c3ccc(F)cc3)cn12` was tested, and the IC50 was > 25 µM (inactive).
`CCOc1ccc2c(c1)c(=O)c(C(=O)c1ccc(C)cc1)cn2CC(=O)Nc1ccc(C)cc1` was tested, and the IC50 was > 25 µM (inactive).
For `O=C(NCC(c1cccnc1)N1CCOCC1)C1CCCCC1` (centres undefined), the IC50 was > 25 µM (inactive).
For `O=C(NC1CC2(CCOCC2)Oc2ccccc21)c1cnccn1` (centres undefined), the IC50 was > 25 µM (inactive).
`COc1cc(C2CC(=O)Nc3nc(-c4ccccc4)[nH]c(=O)c32)cc(OC)c1O` (centres undefined) was tested, and the IC50 was > 25 µM (inactive).
For `O=C(c1ccc2cc[nH]c2c1)N1CCC(Nc2cccnc2)C1` (centres undefined), the IC50 was > 25 µM (inactive).
With `Cc1ccc(N2CC(c3nc4ccccc4n3CCOc3cccc(C)c3)CC2=O)cc1` (centres undefined) the IC50 was > 25 µM (inactive).
`CC(NC(=O)c1ccccc1)c1nc2ccccc2n1CC(=O)Nc1ccc2c(c1)OCO2` (centres undefined) was tested, and the IC50 was > 25 µM (inactive).
With `CC(c1ccccc1)N1CC(O)=C(c2nc3ccccc3s2)C1=N` (centres undefined) the IC50 was > 25 µM (inactive).
`COc1c(C(=O)Nc2nnc(C3CC3)s2)csc1Cl` was tested, and the IC50 was > 25 µM (inactive).
In the case of `CCc1ccc(NC(=O)Cc2nnc3cc(-c4nc(C)no4)ccn23)cc1`, the IC50 is reported as > 25 µM (inactive).
For `Cc1nc(-c2ccccn2)sc1C(=O)/C=C/c1ccccc1`, the IC50 was > 25 µM (inactive).
For `Cn1c(=O)c2c3c(cnc2n(C)c1=O)C(=O)CC(c1ccccc1)C3` (centres undefined), the IC50 was > 25 µM (inactive).
`COc1ccc(-c2cc3nc([C@H](C)NC(=O)COc4ccccc4F)nn3cn2)cc1` was tested, and the IC50 was > 25 µM (inactive).
`COc1ccc(CCn2c(-c3ccccc3)nc3c(c(=O)c4ccccc4n3C)c2=O)cc1OC` was tested, and the IC50 was > 25 µM (inactive).
In the case of `Cc1cccc(-c2nc(NC(=O)COc3ccc(F)cc3)no2)c1`, the IC50 is reported as > 25 µM (inactive).
`O=C(Nc1ccc(Cl)c(Cl)c1)c1cccc(N2CCCCS2(=O)=O)c1` was tested, and the IC50 was > 25 µM (inactive).
With `CCCC1(c2ccccc2)NC(=O)N(Cc2ccc(Cl)cc2)C1=O` (centres undefined) the IC50 was > 25 µM (inactive).
For `Cc1ccccc1NC(=O)Nc1ccccc1OCc1cc(=O)n2cccc(C)c2n1`, the IC50 was > 25 µM (inactive).
With `O=C(C1CCCCC1)N1CCN(c2nc3c(F)cccc3s2)CC1` the IC50 was > 25 µM (inactive).
`O=C(COC(=O)c1cnccn1)Nc1ccc(Cl)cc1C(=O)c1ccccc1` was tested, and the IC50 was > 25 µM (inactive).
With `Cc1cc(OCC(=O)Nc2ccc3c(c2)NC(=O)CO3)ccc1Cl` the IC50 was > 25 µM (inactive).
In the case of `O=c1[nH]c(=O)n(Cc2ccccc2)c2c1CN(CCc1ccccc1)CN2`, the IC50 is reported as > 25 µM (inactive).
`COc1ccc(CNC(=O)CCCc2nnc3c(=O)n(-c4cc(C)cc(C)c4)ccn23)cc1` was tested, and the IC50 was > 25 µM (inactive).
In the case of `CC[C@@H]1[C@@H](C)O[C@@](O)([C@@H](C)[C@H](O)[C@H](C)[C@H]2OC(=O)/C=C/C=C/[C@H](C)[C@@H]([C@@H](C)[C@@H](O)[C@H](C)[C@@]3(O)C[C@@H](O[C@H]4C[C@H](O)[C@H](O)[C@H](C)O4)[C@H](CC)[C@@H](C)O3)OC(=O)/C=C/C=C/[C@@H]2C)C[C@H]1O[C@H]1C[C@H](O)[C@H](O)[C@H](C)O1`, the IC50 is reported as > 25 µM (inactive).
`O=C(CS(=O)(=O)c1ccc(F)cc1)Nc1ccc(-c2nc3ccccc3s2)c(O)c1` was tested, and the IC50 was > 25 µM (inactive).
For `CCOc1ccc(C(c2c(NC(=O)c3ccccc3)sc(C)c2C)N2CCN(CCO)CC2)cc1` (centres undefined), the IC50 was > 25 µM (inactive).
For `CCOc1ccc(-c2ccc3nnc(SCC(=O)Nc4ccc(F)cc4)n3n2)cc1`, the IC50 was > 25 µM (inactive).
For `Cc1ccc(-n2c(=O)[nH]c3c(C(N)=O)nc(-c4ccc(OCc5ccccc5)cc4)nc32)cc1`, the IC50 was > 25 µM (inactive).
`COc1ccc(NC(=O)C2C3C=CC4(O3)C2C(=O)N(CCc2ccccc2)C4C(=O)NC2CCCCC2)cc1` (centres undefined) was tested, and the IC50 was > 25 µM (inactive).
With `Cc1ccc(/C=C/C(=O)c2oc3ccc(F)cc3c2C)cc1` the IC50 was > 25 µM (inactive).
`COc1ccccc1N/C=C/c1onc(-c2c(F)cccc2Cl)c1C#N` was tested, and the IC50 was > 25 µM (inactive).
With `Cc1cc2nc(N3CCN(C(=O)c4ccccc4)CC3)c3ccccc3n2n1` the IC50 was > 25 µM (inactive).
For `O=C(C1CCCCC1)N1CCC(c2nc3c(nnn3Cc3cccc(F)c3)c(=O)[nH]2)CC1`, the IC50 was > 25 µM (inactive).
In the case of `CC(C)c1cc(C2CCCN2C(=O)Cc2ccc(Cl)cc2)no1` (centres undefined), the IC50 is reported as > 25 µM (inactive).
For `COc1ccc(C(=O)Nc2nnc(S(=O)(=O)N3CCCc4ccccc43)s2)cc1OC`, the IC50 was > 25 µM (inactive).
In the case of `O=C(CSc1nnc(C2CC2)n1-c1ccccc1)c1ccc(F)c(F)c1`, the IC50 is reported as > 25 µM (inactive).
In the case of `Cc1ccc(-n2cc(C(=O)NCCCc3ccccc3)nn2)cc1`, the IC50 is reported as > 25 µM (inactive).
